# Laboratory results reported in paper PMC7822874, “Chemoprotective antimalarials identified through quantitative high-throughput screening of Plasmodium blood and liver stage parasites” (Scientific Reports, 2021).
# Where two headings read alike, the source gives them in different places.
# Experiments:
# [1] = test system: P. berghei-ANKA-GFP-LucCON liver stage parasites in HepG2-A16-CD81EGFP cells; assay: P. berghei liver stage Pb-Luc assay, Method 1 (UCSD, 1536-well); assay type: cell-based, Plasmodium berghei; conditions: for Max Resp (signal direction of the dose response) / AC50 / Log AC50 (M): Method 1; for Max Resp (signal direction of the dose response): Decrease = decreasing P. berghei viability with dose, Increase = increasing signal, Inactive = no dose response; for activity at 1 µM / activity at 3 µM: 48 h, average of 2 wells on a 1536 well plate
# [2] = in vitro; conditions: human
# [3] = test system: Plasmodium falciparum Dd2 asexual blood stage parasites; assay: microbe, parasite or virus in culture; parameters: species or system Plasmodium falciparum Dd2 in human erythrocytes; single determination (one 11-point concentration-response curve); conditions: Plasmodium falciparum, DD2, Erythrocyte, 72 h; read-out: AC50
# [4] = in vitro; conditions: human, n = 1
# [5] = test system: HepG2-A16-CD81EGFP cells; conditions: average of 2 wells
# [6] = Hill fit, 50% of maximum activity response, read-out: AC50
# [7] = log10 of molar AC50 from Hill fit
# [8] = Plasmodium berghei, Hill fit, 50% of maximum activity response, read-out: AC50
# [9] = Plasmodium berghei, log10 of molar AC50 from Hill fit, read-out: Log AC50 (converted)
# [10] = HepG2-A16-CD81EGFP cells, uninfected
# [11] = Plasmodium berghei, 1 uM (compounds provided at 10 mM), column 11, read-out: Pb-Luc (P. berghei liver stage), % of control, lower concentration, first repeat
# [12] = Plasmodium berghei, 1 uM (compounds provided at 10 mM), column 12, read-out: Pb-Luc (P. berghei liver stage), % of control, lower concentration, second repeat
# [13] = Plasmodium berghei, 3 uM (compounds provided at 10 mM), column 8, read-out: Pb-Luc (P. berghei liver stage), % of control, higher concentration, first repeat
# [14] = Plasmodium berghei, 3 uM (compounds provided at 10 mM), column 9, read-out: Pb-Luc (P. berghei liver stage), % of control, higher concentration, second repeat
Compound,Max Resp (signal direction of the dose response) [1],"AC50 [1, 6]","Log AC50 (M) [1, 7]","AC50 [1, 8]","AC50 [1, 9]","viability at 66 h [2, 10]",AC50 [3],CC50 at 48 h ([4]; HepG2 cells),"viability at 48 h, 1 µM [2, 10]",other results
N=c1ccn(Cc2ccc(Cl)c(Cl)c2)cc1 [MLS000080112-01],Decrease,1580 nM,-5.800 M,1410 nM,1410 nM,99.6%,6.68 µM,30.6 µM,–,–
CCOC(=O)c1cnc(-n2nc(C)cc2C)nc1NC1CCCC1 [MLS000333072-01],Inactive,–,–,–,–,107%,8.41 µM,17.2 µM,–,–
COc1ccccc1NS(=O)(=O)c1cc(NC(=O)c2ccc(Cl)nc2)ccc1Cl [MLS000417369-01],Decrease,2510 nM,-5.600 M,2000 nM,2000 nM,96.5%,–,19.3 µM,–,–
O=C(CCl)Nc1cccc(-c2cnc3ccccc3n2)c1 [MLS000541295-01],–,–,–,–,–,–,6.68 µM,13.7 µM,–,"activity at 1 µM ([1]; Plasmodium berghei, P. berghei liver stage, 1 µM compound treatment (10 mM stocks), replicate 1, normalized, read-out: PbLuc 1uM growth rep1): 128%; activity at 1 µM ([1]; Plasmodium berghei, P. berghei liver stage, 1 µM compound treatment (10 mM stocks), replicate 2, normalized, read-out: PbLuc 1uM growth rep2): 119%; activity at 3 µM ([1]; Plasmodium berghei, P. berghei liver stage, 3 µM compound treatment (10 mM stocks), replicate 1, normalized, read-out: PbLuc 3uM growth rep1): 151%; activity at 3 µM ([1]; Plasmodium berghei, P. berghei liver stage, 3 µM compound treatment (10 mM stocks), replicate 2, normalized, read-out: PbLuc 3uM growth rep2): 185%; HepG2 1uM growth rep1 ([5]; HepG2, 1 µM compound treatment (10 mM stocks), replicate 1, normalized): 90%; HepG2 1uM growth rep2 ([5]; HepG2, 1 µM compound treatment (10 mM stocks), replicate 2, normalized): 88%; HepG2 3uM growth rep1 ([5]; HepG2, 3 µM compound treatment (10 mM stocks), replicate 1, normalized): 89%; HepG2 3uM growth rep2 ([5]; HepG2, 3 µM compound treatment (10 mM stocks), replicate 2, normalized): 88%"
N=c1ccn(Cc2ccc(Cl)cc2Cl)cc1 [MLS000554049-01],Inactive,–,–,–,–,–,8.41 µM,19.3 µM,89.2%,"viability at 48 h [2, 10]: 89.2%"
CC(=O)N(C)C1=C(N2CCOCC2)C(=O)c2ccccc2C1=O [MLS000570886-01],Decrease,1580 nM,-5.800 M,1260 nM,1260 nM,92.5%,0.841 µM,10.9 µM,–,–
c1ccc(CCNc2ccnc3cc4ccccc4cc23)cc1 [MLS000717866-01],Decrease,501 nM,-6.300 M,398 nM,398 nM,93.8%,1.68 µM,10.9 µM,–,–
O=C(Nc1ccc([N+](=O)[O-])cc1)Nc1nc(-c2ccc(Cl)s2)cs1 [MLS000722351-01],Decrease,224 nM,-6.650 M,178 nM,178 nM,90%,2.99 µM,13.7 µM,–,–
Cc1ccc(Cl)cc1NC(=O)c1cc2ccccc2cc1O [MLS000738149-01],–,–,–,–,–,–,1.5 µM,–,–,"activity at 1 µM [1, 11]: 92%; activity at 1 µM [1, 12]: 94%; activity at 3 µM [1, 13]: 38%; activity at 3 µM [1, 14]: 81%; viability at 48 h, 1 µM [2]: 104%; viability at 48 h, 3 µM [2]: 69%; CC50 at 48 h ([4]; hepg2): 21.7 µM"
COc1cc(NC2CCCCC2O)c2nc(-c3ccc(Cl)cc3)ccc2c1 (stereo not drawn) [MLS000766166-01],–,–,–,–,–,–,5.31 µM,13.7 µM,111%,"viability at 48 h, 3 µM [2, 10]: 101%"
CC(C)Nc1ccc(Nc2ccnc3cc4ccccc4cc23)cc1 [MLS000766754-01],–,–,–,–,–,–,–,27.3 µM,114%,"activity at 1 µM [1, 11]: 101%; activity at 1 µM [1, 12]: 80%; activity at 3 µM [1, 13]: 10%; activity at 3 µM [1, 14]: 14%; viability at 48 h, 3 µM [2, 10]: 78%"
c1ccc(CCNc2nc(-c3ccccn3)nc3ccccc23)cc1 [MLS000769840-01],Inactive,–,–,–,–,–,4.73 µM,10.9 µM,96.1%,"viability at 48 h [2, 10]: 96.1%"
O=C1Nc2ccccc2C1=NN=C(S)N1CCOCC1 [MLS000778251-01],Decrease,316 nM,-6.500 M,251 nM,251 nM,86.1%,2.11 µM,15.3 µM,–,–
